Measured values: paper PMC12136037, “Type II kinase inhibitors that target Parkinson’s disease–associated LRRK2” (Science Advances, 2025)
“And” between values parts separate entries of the source, which are not always exact repeats. Identical values can stand only once.

Key:
[1] = biological target: T1, ~100 representative kinases (Homo sapiens, UniProt P54762); assay: DSF 100 kinase selectivity screen; format: binding; details: Protein EPHB1; average of three replicates;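 also: compound tested at 20 µM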
T1 construct: Recombinant protein kinase domains with a concentration of 2 μM
T1 sequence (P54762 18-984): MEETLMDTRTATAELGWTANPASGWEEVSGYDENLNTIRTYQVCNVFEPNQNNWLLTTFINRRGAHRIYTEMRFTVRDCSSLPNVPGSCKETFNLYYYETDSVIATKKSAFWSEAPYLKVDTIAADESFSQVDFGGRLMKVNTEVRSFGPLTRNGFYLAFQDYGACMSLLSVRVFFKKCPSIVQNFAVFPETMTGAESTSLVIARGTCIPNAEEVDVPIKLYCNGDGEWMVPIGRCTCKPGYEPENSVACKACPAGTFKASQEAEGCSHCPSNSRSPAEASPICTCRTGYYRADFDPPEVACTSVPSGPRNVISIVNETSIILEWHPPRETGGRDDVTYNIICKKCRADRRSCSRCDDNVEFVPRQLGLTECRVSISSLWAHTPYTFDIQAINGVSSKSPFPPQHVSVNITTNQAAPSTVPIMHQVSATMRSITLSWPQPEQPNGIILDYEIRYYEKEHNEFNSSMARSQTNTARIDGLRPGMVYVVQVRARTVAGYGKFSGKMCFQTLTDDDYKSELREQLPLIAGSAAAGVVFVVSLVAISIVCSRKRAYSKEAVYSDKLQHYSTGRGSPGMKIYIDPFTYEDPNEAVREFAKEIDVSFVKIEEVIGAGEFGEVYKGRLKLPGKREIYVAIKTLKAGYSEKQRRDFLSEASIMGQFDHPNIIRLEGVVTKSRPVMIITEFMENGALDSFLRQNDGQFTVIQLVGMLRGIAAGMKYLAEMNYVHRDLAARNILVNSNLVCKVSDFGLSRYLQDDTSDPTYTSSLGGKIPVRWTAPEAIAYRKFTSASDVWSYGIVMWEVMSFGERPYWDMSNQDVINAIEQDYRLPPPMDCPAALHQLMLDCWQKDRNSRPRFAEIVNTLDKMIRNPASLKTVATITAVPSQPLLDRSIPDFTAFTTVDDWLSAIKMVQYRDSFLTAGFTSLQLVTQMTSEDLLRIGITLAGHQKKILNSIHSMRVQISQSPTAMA
Procedure, shortened: (§1)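 Each kinase domain, at 2 μM, is mixed with 20 μM test compound and SYPRO Orange in Hepes (20 mM, pH 7.5) with 500 mM NaCl. Temperature is then raised at 3°C/min and fluorescence-monitored unfolding yields the melting temperature change, ΔTm in degrees Celsius.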

[2] = biological target: T2, ~100 representative kinases (Homo sapiens, UniProt Q13557); assay: DSF 100 kinase selectivity screen; format: binding; details: Protein CAMK2D; average of three replicates;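 also: compound tested at 20 µM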
T2 construct: Recombinant protein kinase domains with a concentration of 2 μM
T2 sequence (Q13557 whole entry, the tested form may be a part): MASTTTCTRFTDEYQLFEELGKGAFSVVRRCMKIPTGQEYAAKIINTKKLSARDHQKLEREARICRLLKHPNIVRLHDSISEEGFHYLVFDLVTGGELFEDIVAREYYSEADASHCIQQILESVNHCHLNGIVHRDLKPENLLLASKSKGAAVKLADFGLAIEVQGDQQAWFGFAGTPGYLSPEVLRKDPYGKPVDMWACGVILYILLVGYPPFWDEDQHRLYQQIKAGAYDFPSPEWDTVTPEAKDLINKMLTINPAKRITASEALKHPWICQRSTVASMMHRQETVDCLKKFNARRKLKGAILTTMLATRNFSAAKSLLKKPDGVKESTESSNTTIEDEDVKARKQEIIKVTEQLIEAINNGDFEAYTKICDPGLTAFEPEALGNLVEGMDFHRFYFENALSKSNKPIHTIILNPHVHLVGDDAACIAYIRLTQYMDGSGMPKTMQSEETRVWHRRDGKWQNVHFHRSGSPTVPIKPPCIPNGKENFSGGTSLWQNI
Procedure, shortened: as §1

LRRK2^RCKW = biological target: T3, LRRK2^RCKW (Homo sapiens, UniProt Q5S007); assay: Biochemical LRRK2 activity assay (PhosphoSense, AssayQuant SOX peptide AQT0615); details: for IC50: LRRK2^RCKW kinase activity, in vitro; for normalized response (LRRK2 activity): normalized to 0% (no kinase) and 100% (no inhibitor) control, two singlicate columns per compound
T3 construct: LRRK2 R1327 to E2527; His6-Z-tag (TEV cleavable) (N, cleaved yes); host or cells: Sf9 insect cells (baculovirus)
T3 sequence (Q5S007 1327-2527): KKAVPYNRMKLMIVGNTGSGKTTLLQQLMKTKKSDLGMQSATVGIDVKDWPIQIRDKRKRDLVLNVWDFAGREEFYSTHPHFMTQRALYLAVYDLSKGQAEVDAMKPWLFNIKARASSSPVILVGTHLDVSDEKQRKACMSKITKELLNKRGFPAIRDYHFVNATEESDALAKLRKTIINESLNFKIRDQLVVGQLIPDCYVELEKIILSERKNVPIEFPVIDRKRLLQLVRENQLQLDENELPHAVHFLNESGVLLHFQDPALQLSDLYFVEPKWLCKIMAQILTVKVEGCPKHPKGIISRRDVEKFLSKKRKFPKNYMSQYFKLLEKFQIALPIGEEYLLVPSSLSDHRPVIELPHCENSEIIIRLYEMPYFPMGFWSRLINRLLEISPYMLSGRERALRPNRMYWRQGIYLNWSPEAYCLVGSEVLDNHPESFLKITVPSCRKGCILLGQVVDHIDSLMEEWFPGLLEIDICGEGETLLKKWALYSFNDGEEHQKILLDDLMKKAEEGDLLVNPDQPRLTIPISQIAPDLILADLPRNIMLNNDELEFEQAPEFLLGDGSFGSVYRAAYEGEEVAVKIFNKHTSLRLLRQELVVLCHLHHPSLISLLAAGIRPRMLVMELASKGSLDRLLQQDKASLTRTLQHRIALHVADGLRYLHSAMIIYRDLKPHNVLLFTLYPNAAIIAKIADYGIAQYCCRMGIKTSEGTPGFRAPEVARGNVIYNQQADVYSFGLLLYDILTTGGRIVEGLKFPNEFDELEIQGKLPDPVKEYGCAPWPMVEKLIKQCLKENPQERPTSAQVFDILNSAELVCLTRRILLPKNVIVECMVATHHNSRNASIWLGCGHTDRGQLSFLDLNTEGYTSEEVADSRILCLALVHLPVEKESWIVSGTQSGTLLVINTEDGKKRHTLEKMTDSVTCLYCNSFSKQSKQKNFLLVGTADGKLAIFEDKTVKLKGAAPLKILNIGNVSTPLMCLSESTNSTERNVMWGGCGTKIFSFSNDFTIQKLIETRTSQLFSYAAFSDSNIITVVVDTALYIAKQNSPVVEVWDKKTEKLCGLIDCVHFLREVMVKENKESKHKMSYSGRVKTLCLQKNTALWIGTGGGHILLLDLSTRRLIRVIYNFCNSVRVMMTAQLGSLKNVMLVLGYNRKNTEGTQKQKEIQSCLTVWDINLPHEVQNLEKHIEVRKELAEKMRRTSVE
Procedure, shortened: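 Controls lacked protein and compound (0%) or compound only (100%). IC50 derived by nonlinear regression of normalized response versus log[inhibitor].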

Compound	dTm [1]	dTm [2]	IC50 (LRRK2^RCKW)	normalized response (LRRK2 activity) (LRRK2^RCKW; log[inhibitor(mol)] -4.82391)	normalized response (LRRK2 activity) (LRRK2^RCKW; log[inhibitor(mol)] -5.12494)	normalized response (LRRK2 activity) (LRRK2^RCKW; log[inhibitor(mol)] -5.60206)	normalized response (LRRK2 activity) (LRRK2^RCKW; log[inhibitor(mol)] -6.30103)	normalized response (LRRK2 activity) (LRRK2^RCKW; log[inhibitor(mol)] -6.90309)	normalized response (LRRK2 activity) (LRRK2^RCKW; log[inhibitor(mol)] -7.30103)	normalized response (LRRK2 activity) (LRRK2^RCKW; log[inhibitor(mol)] -7.60206)	normalized response (LRRK2 activity) (LRRK2^RCKW; log[inhibitor(mol)] -8.09691)	normalized response (LRRK2 activity) (LRRK2^RCKW; log[inhibitor(mol)] -8.61979)	normalized response (LRRK2 activity) (LRRK2^RCKW; log[inhibitor(mol)] -9.09691)	normalized response (LRRK2 activity) (LRRK2^RCKW; log[inhibitor(mol)] -9.39794)
O=C(Nc1cccc(-c2c[nH]c3ncnc(N4CCOCC4)c23)c1)C1(C(=O)Nc2ccc(F)c(Br)c2)CC1 [Compound 19]	1.85 K	1.25 K	264 ± 19 nM	3.161% and 1.4%	3.805% and 3.935%	9.506% and 13.5388%	29.4238% and 33.7614%	67.8273% and 68.8623%	84.3755% and 91.2634%	88.4282% and 94.2182%	94.3856% and 94.7313%	99.7343% and 99.0059%	100.123% and 100.393%	97.0165% and 71.9323%
Cc1cc(NC(=O)C2(C(=O)Nc3cccc(-c4c[nH]c5ncnc(N6CCOCC6)c45)c3)CC2)ccc1F [Compound 20]	4.46 K	0.24 K	110 ± 11 nM	-5.58% and -14.6884%	-12.9576% and -4.07%	-8.508% and -7.489%		42.2259% and 43.1588%	74.6695% and 77.6217%	88.2582% and 90.1977%	89.9215% and 96.544%	106.119% and 94.9298%	105.603% and 97.4708%	68.2188% and 102.467%
COc1cc(NC(=O)C2(C(=O)Nc3cccc(-c4c[nH]c5ncnc(N6CCOCC6)c45)c3)CC2)ccc1F [Compound 21]	1.66 K	-0.00539 K	331 ± 59 nM		-8.581% and -13.1049%	-3.229% and 0.9871%	31.841% and 40.7652%	74.4117% and 83.0044%	89.3998% and 91.1429%	98.2625% and 97.8145%	90.8667% and 93.1069%	91.1981% and 94.2547%	94.6536% and 91.2165%	100.092% and 102.338%
CC(C)(C)c1cccc(NC(=O)C2(C(=O)Nc3cccc(-c4c[nH]c5ncnc(N6CCOCC6)c45)c3)CC2)c1 [Compound 22]	-3.38 K	0.84 K	886 ± 63 nM	10.3797% and 6.914%	10.6927% and 10.684%	26.6669% and 27.2452%	59.6653% and 62.0504%	86.7302% and 90.6112%	94.29% and 100.35%	102.254% and 104.876%	100.313% and 102.032%	105% and 108.964%	105.539% and 102.73%	104.285% and 104.996%
O=C(Nc1cccc(-c2c[nH]c3ncnc(N4CCOCC4)c23)c1)C1(C(=O)Nc2ccc(F)cc2F)CC1 [Compound 23]	2.11 K	0.16 K	159 ± 0.2 nM	-26.6261% and -31.2355%	-19.0277% and -21.4214%	-16.2351% and -13.5898%	3.675% and 3.246%	59.976% and 57.9812%	81.7768% and 85.349%	93.6348% and 95.0771%	95.5743% and 95.9609%	101.288% and 95.0587%	106.438% and 96.5808%	103.437% and 104.087%
Cc1cc(F)ccc1NC(=O)C1(C(=O)Nc2cccc(-c3c[nH]c4ncnc(N5CCOCC5)c34)c2)CC1 [Compound 24]	1.63 K	-0.18 K	1190 ± 231 nM		6.394% and 5.578%	30.1593% and 37.3588%	66.9115% and 76.4371%	91.3884% and 99.1893%	98.0109% and 87.3375%	102.16% and 100.865%	98.4037% and 99.8706%	99.6435% and 101.436%		101.258% and 60.2522%
